Results published in PubChem BioAssay AID330 (DTP/NCI, 2004).
Toxic doses and inconclusive results are not listed. How the source made its calls: active means survival T/C of 150% or more; inactive means T/C below 125% in these data.

Test system: P388 leukemia ip, CD2F1 mice, survival T/C
Test: NCI In Vivo Anticancer Drug Screen. Data for tumor model P388 Leukemia (intraperitoneal) in CD2F1 (CDF1) mice
Conditions: endpoint: median survival time, higher = longer survival
Outline: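 Mice carrying the transplanted tumor received test compound or vehicle. Survival was recorded in each group, and the value is the treated-group measurement divided by that of the vehicle-treated control group.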

[1] = dose: 50.0 mg/kg/injection, schedule: Q01DX005 (ip), vehicle: Klucel (hydroxypropylcellulose) (HPC)
[2] = dose: 100.0 mg/kg/injection, schedule: Q01DX005 (ip), vehicle: Klucel (hydroxypropylcellulose) (HPC)
[3] = dose: 50.0 mg/kg/injection, schedule: Q01DX009 (ip), vehicle: saline with Tween-80
[4] = dose: 100.0 mg/kg/injection, schedule: Q01DX009 (ip), vehicle: saline with Tween-80
[5] = dose: 200.0 mg/kg/injection, schedule: Q01DX009 (ip), vehicle: saline with Tween-80
[6] = dose: 200.0 mg/kg/injection, schedule: Q01DX005 (ip), vehicle: Klucel (hydroxypropylcellulose) (HPC)

Measured: T/C

COCC(O)Cn1ccnc1[N+](=O)[O-] (centres undefined)
inactive: dose: 1.0 mg/kg/injection, schedule: Q01DX009 (ip), vehicle: saline + alcohol 100 % of control | dose: 1.0 mg/kg/injection, schedule: Q01DX009 (ip), vehicle: saline 104 % of control | dose: 2.0 mg/kg/injection, schedule: Q01DX009 (ip), vehicle: saline + alcohol 98 % of control | dose: 2.0 mg/kg/injection, schedule: Q01DX009 (ip), vehicle: saline 109 % of control | dose: 4.0 mg/kg/injection, schedule: Q01DX009 (ip), vehicle: saline 120 % of control | dose: 8.0 mg/kg/injection, schedule: Q01DX009 (ip), vehicle: saline 111 % of control | dose: 16.0 mg/kg/injection, schedule: Q01DX009 (ip), vehicle: saline 108 % of control | dose: 32.0 mg/kg/injection, schedule: Q01DX009 (ip), vehicle: saline 112 % of control | dose: 64.0 mg/kg/injection, schedule: Q01DX009 (ip), vehicle: saline + alcohol 124 % of control | dose: 64.0 mg/kg/injection, schedule: Q01DX009 (ip), vehicle: saline 102 % of control | dose: 128.0 mg/kg/injection, schedule: Q01DX009 (ip), vehicle: saline + alcohol 98 % of control | dose: 128.0 mg/kg/injection, schedule: Q01DX009 (ip), vehicle: saline 111 % of control | dose: 250.0 mg/kg/injection, schedule: Q01DX001 (ip), vehicle: saline + alcohol 97 % of control | dose: 256.0 mg/kg/injection, schedule: Q01DX009 (ip), vehicle: saline + alcohol 91 % of control | dose: 256.0 mg/kg/injection, schedule: Q01DX009 (ip), vehicle: saline 111 % of control | dose: 500.0 mg/kg/injection, schedule: Q01DX001 (ip), vehicle: saline + alcohol 100 % of control | dose: 512.0 mg/kg/injection, schedule: Q01DX009 (ip), vehicle: saline 112 % of control | dose: 600.0 mg/kg/injection, schedule: Q01DX005 (ip), vehicle: saline 114 % of control | dose: 1000.0 mg/kg/injection, schedule: Q01DX001 (ip), vehicle: saline + alcohol 102 % of control | dose: 1000.0 mg/kg/injection, schedule: Q01DX005 (ip), vehicle: saline 105 % of control | dose: 2000.0 mg/kg/injection, schedule: Q01DX001 (ip), vehicle: saline + alcohol 66 % of control

O=C1c2ccccc2C(=O)c2c(NCCCC3CCCN4CCCCC34)cccc21 (centres undefined)
inactive: [1] 105 % of control | [2] 100 % of control

CCC/C(=N\N=C(N)N)c1ccc(Cl)cc1
inactive: dose: 25.0 mg/kg/injection, schedule: Q04DX002 (ip), vehicle: saline with Tween-80 100 % of control

COC(=O)OCC#Cc1ccccc1
inactive: dose: 50.0 mg/kg/injection, schedule: Q04DX002 (ip), vehicle: saline with Tween-80 100 % of control | dose: 100.0 mg/kg/injection, schedule: Q04DX002 (ip), vehicle: saline with Tween-80 108 % of control | dose: 200.0 mg/kg/injection, schedule: Q04DX002 (ip), vehicle: saline with Tween-80 112 % of control

CCCCCCCCCCCCCCCC[N+]1(CC)CCOCC1 (tested in a mixture with another compound)
inactive: dose: 3.13 mg/kg/injection, schedule: Q01DX009 (ip), vehicle: Klucel (hydroxypropylcellulose) (HPC) 96 % of control | dose: 6.25 mg/kg/injection, schedule: Q01DX009 (ip), vehicle: Klucel (hydroxypropylcellulose) (HPC) 113 % of control | dose: 12.5 mg/kg/injection, schedule: Q01DX009 (ip), vehicle: Klucel (hydroxypropylcellulose) (HPC) 115 % of control

CCCCCCC(=O)/C=C/c1ccc([N+](=O)[O-])cc1
inactive: [3] 99 % of control | [4] 99 % of control | [5] 92 % of control

CCOc1nsc(OCC)n1
inactive: dose: 12.5 mg/kg/injection, schedule: Q01DX009 (ip), vehicle: saline with Tween-80 103 % of control | dose: 25.0 mg/kg/injection, schedule: Q01DX009 (ip), vehicle: saline with Tween-80 106 % of control | [3] 106 % of control | [4] 114 % of control

O=[N+]([O-])c1cccc(S(=O)(=O)N/N=C/c2cc([N+](=O)[O-])cc(I)c2O)c1
inactive: dose: 60.0 mg/kg/injection, schedule: Q01DX005 (ip), vehicle: saline with Tween-80 103 % of control | dose: 120.0 mg/kg/injection, schedule: Q01DX005 (ip), vehicle: saline with Tween-80 95 % of control | dose: 240.0 mg/kg/injection, schedule: Q01DX005 (ip), vehicle: saline with Tween-80 111 % of control

Nc1n[nH]c(CCCCc2nc(N)n[nH]2)n1
inactive: dose: 60.0 mg/kg/injection, schedule: Q01DX005 (ip), vehicle: Klucel (hydroxypropylcellulose) (HPC) 97 % of control | dose: 120.0 mg/kg/injection, schedule: Q01DX005 (ip), vehicle: Klucel (hydroxypropylcellulose) (HPC) 99 % of control | dose: 240.0 mg/kg/injection, schedule: Q01DX005 (ip), vehicle: Klucel (hydroxypropylcellulose) (HPC) 98 % of control

COC(=O)[C@@]12OC[C@]34[C@H]([C@@H](O)[C@@H]1O)[C@@]1(C)CC(=O)C(O)=C(C)[C@@H]1C[C@H]3OC(=O)[C@H](OC(=O)/C=C(\C)C(C)CO)[C@@H]24 (some centres undefined)
inactive: dose: 0.5 mg/kg/injection, schedule: Q01DX009 (ip), vehicle: saline + alcohol 115 % of control

C/C(=N\N=C(/[Se])N1CCCCC1C)c1ccccn1 (centres undefined)
inactive: dose: 12.5 mg/kg/injection, schedule: Q04DX003 (ip), vehicle: Klucel (hydroxypropylcellulose) (HPC) 101 % of control | dose: 25.0 mg/kg/injection, schedule: Q04DX003 (ip), vehicle: Klucel (hydroxypropylcellulose) (HPC) 114 % of control

CC1C(=O)OC2CC34C5CC(C(C)(C)C)C36C(OC(=O)C6O)OC4(C(=O)O5)C21O (centres undefined)
inactive: [1] 100 % of control | [2] 100 % of control | [6] 92 % of control

COC(=O)C1=C(C(=O)OC)CCC1
inactive: dose: 25.0 mg/kg/injection, schedule: Q01DX009 (ip), vehicle: distilled water + Tween-80 97 % of control | dose: 50.0 mg/kg/injection, schedule: Q01DX009 (ip), vehicle: distilled water + Tween-80 91 % of control | dose: 100.0 mg/kg/injection, schedule: Q01DX009 (ip), vehicle: distilled water + Tween-80 100 % of control | dose: 200.0 mg/kg/injection, schedule: Q01DX009 (ip), vehicle: distilled water + Tween-80 105 % of control | dose: 400.0 mg/kg/injection, schedule: Q01DX009 (ip), vehicle: distilled water + Tween-80 100 % of control

c1csc(-c2[nH]nc3c2CCc2ccccc2-3)c1
inactive: dose: 3.75 mg/kg/injection, schedule: Q01DX005 (ip), vehicle: Klucel (hydroxypropylcellulose) (HPC) 122 % of control | dose: 7.5 mg/kg/injection, schedule: Q01DX005 (ip), vehicle: Klucel (hydroxypropylcellulose) (HPC) 114 % of control | dose: 15.0 mg/kg/injection, schedule: Q01DX005 (ip), vehicle: Klucel (hydroxypropylcellulose) (HPC) 114 % of control

C=Cc1c(Cl)nc(C)c(C)c1-c1ccc(OC)c(OC)c1OCc1ccccc1
inactive: [1] 92 % of control | [2] 104 % of control | [6] 91 % of control

OC1COC(c2ccccc2)OC1C1OC(c2ccccc2)OC2COC(c3ccccc3)OC21 (centres undefined)
inactive: [3] 107 % of control | [4] 96 % of control | [5] 97 % of control

Cc1sc(N=Nc2ccc(N(C)C)cc2)[n+]([O-])c1C
inactive: dose: 50.0 mg/kg/injection, schedule: Q01DX009 (ip), vehicle: Klucel (hydroxypropylcellulose) (HPC) 111 % of control | dose: 100.0 mg/kg/injection, schedule: Q01DX009 (ip), vehicle: Klucel (hydroxypropylcellulose) (HPC) 102 % of control | dose: 200.0 mg/kg/injection, schedule: Q01DX009 (ip), vehicle: Klucel (hydroxypropylcellulose) (HPC) 104 % of control

Cc1cnc(Sc2ncccn2)c([N+](=O)[O-])c1
inactive: dose: 50.0 mg/kg/injection, schedule: Q01DX009 (ip), vehicle: saline 101 % of control | dose: 100.0 mg/kg/injection, schedule: Q01DX009 (ip), vehicle: saline 104 % of control | dose: 200.0 mg/kg/injection, schedule: Q01DX009 (ip), vehicle: saline 104 % of control
